# Data taken from patent US6255250A, “Plant growth regulators in pyrrolidone solvents” (BASF Corporation, priority 1997, dated 2001).
# Key:
# cotton plants = details: approximately 62.5 to 500 g ai/ha assuming spray volume 500 l/ha; cited from earlier work
# peach = details: low rate (0.08 mM); cited from earlier work
# horticultural plants = details: several horticultural plants; cited from earlier work
# Cotton = type: in vivo; details: mc column, mepiquat chloride 12 g/ha
# Text: This resulting composition was mixed with PIX® mepiquat chloride plant growth regulator (BASF Corporation) such that the mepiquat chloride was applied to cotton in field studies at a rate of 12 g/ha and the {[(isopropylidene)-amino]oxy}-acetic acid-2-(methoxy)-2-oxoethyl ester contained in the solvent with an emulsifier system was applied at 1 and 10 g/ha.
# physchem = details: water
# Experimental: Formulations of the present invention were prepared as described in Example 1 and were tested for hydrolysis half-life.
smiles,measurement,setting,value
NCCOC=CC(N)C(=O)O (stereo not drawn) [aminoethoxyvinylglycine],improvement in a plant growth factor with increasing rate,cotton plants,"As the rate of AVG treatment increased, so did the improvement"
O=P(O)(O)CCCl [ethephon],effect on bloom and side effects in peach,peach,significantly delayed bloom in peach and reduced side effects
same,effect on yields and hardiness,horticultural plants,increased the yields and hardiness of several horticultural plants
C[N+]1(C)CCCCC1 [mepiquat chloride],Frequency of Positive Yield,Cotton,38%
same,Relative Yield (% compared to untreated),Cotton,102%
COC(=O)COC(=O)CON=C(C)C [{[(isopropylidene)-amino]oxy}-acetic acid-2-(methoxy)-2-oxoethyl ester],half-life,physchem,12 to 21 days
